Experiment: toxicity in mice: body weight and observations after IP administration
Type: in vivo
Conditions: for body weight / body weight change (% wt/wt): female mice
In short: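 Mice (female where stated) received the test compound intraperitoneally on day 1, dissolved in 20% hydroxypropylcyclodextrane at an administration volume of 10 ml/kg. Toxicity was assessed from body weight, body weight change (% wt/wt) and observations of the animals after administration.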

CC(C)c1ccc(-c2cn3nc(N4CCC(CN5CCN(CCO)CC5)CC4)sc3n2)cc1 [Compound E266, 2-(4-{1-[6-(4-isopropyl-phenyl)-imidazo[2,1-b][1,3,4]thiadiazol-2-yl]-piperidin-4-ylmethyl}-piperazin-1-yl)-ethanol]
body weight (100 mg/kg IP, day 1): 36.1 g
body weight change (% wt/wt) (100 mg/kg IP, day 1): 0%
body weight (100 mg/kg IP, day 2): 35.7 g
body weight change (% wt/wt) (100 mg/kg IP, day 2): −1.1%
body weight (100 mg/kg IP, day 3): 36.1 g
body weight change (% wt/wt) (100 mg/kg IP, day 3): 0.0%
body weight (100 mg/kg IP, day 4): 35.2 g
body weight change (% wt/wt) (100 mg/kg IP, day 4): −2.5%
body weight (100 mg/kg IP, day 5): 34 g
body weight change (% wt/wt) (100 mg/kg IP, day 5): −5.8%
body weight (100 mg/kg IP, day 6): 33.9 g
body weight change (% wt/wt) (100 mg/kg IP, day 6): −6.1%
body weight (100 mg/kg IP, day 7): 34 g
body weight change (% wt/wt) (100 mg/kg IP, day 7): −5.8%
body weight (100 mg/kg IP, day 8): 33.6 g
body weight change (% wt/wt) (100 mg/kg IP, day 8): −6.9%
body weight (100 mg/kg IP, day 9): 32.4 g
body weight change (% wt/wt) (100 mg/kg IP, day 9): −10.2%
body weight (100 mg/kg IP, day 10): 33.5 g
body weight change (% wt/wt) (100 mg/kg IP, day 10): −7.2%
body weight (100 mg/kg IP, day 11): 32.6 g
body weight change (% wt/wt) (100 mg/kg IP, day 11): −9.7%
body weight (100 mg/kg IP, day 12): 33.4 g
body weight change (% wt/wt) (100 mg/kg IP, day 12): −7.5%
body weight (100 mg/kg IP, day 13): 32.8 g
body weight change (% wt/wt) (100 mg/kg IP, day 13): −9.1%
body weight (100 mg/kg IP, day 14): 32.2 g
body weight change (% wt/wt) (100 mg/kg IP, day 14): −10.8%
body weight (100 mg/kg IP, day 15): 32.4 g
body weight change (% wt/wt) (100 mg/kg IP, day 15): −10.2%
body weight (200 mg/kg IP, day 1): 31.5 g
body weight change (% wt/wt) (200 mg/kg IP, day 1): 0%
body weight (200 mg/kg IP, day 2): 30.5 g
body weight change (% wt/wt) (200 mg/kg IP, day 2): −3.2%
body weight (200 mg/kg IP, day 3): 30.8 g
body weight change (% wt/wt) (200 mg/kg IP, day 3): −2.2%
body weight (200 mg/kg IP, day 4): 30.6 g
body weight change (% wt/wt) (200 mg/kg IP, day 4): −2.9%
body weight (200 mg/kg IP, day 5): 30.6 g
body weight change (% wt/wt) (200 mg/kg IP, day 5): −2.9%
body weight (200 mg/kg IP, day 6): 30.9 g
body weight change (% wt/wt) (200 mg/kg IP, day 6): −1.9%
body weight (200 mg/kg IP, day 7): 31 g
body weight change (% wt/wt) (200 mg/kg IP, day 7): −1.6%
body weight (200 mg/kg IP, day 8): 31.1 g
body weight change (% wt/wt) (200 mg/kg IP, day 8): −1.3%
body weight (200 mg/kg IP, day 9): 30.6 g
body weight change (% wt/wt) (200 mg/kg IP, day 9): −2.9%
body weight (200 mg/kg IP, day 10): 31.2 g
body weight change (% wt/wt) (200 mg/kg IP, day 10): −1.0%
body weight (200 mg/kg IP, day 11): 29.9 g
body weight change (% wt/wt) (200 mg/kg IP, day 11): −5.1%
body weight (200 mg/kg IP, day 12): 30.6 g
body weight change (% wt/wt) (200 mg/kg IP, day 12): −2.9%
body weight (200 mg/kg IP, day 13): 30.6 g
body weight change (% wt/wt) (200 mg/kg IP, day 13): −2.9%
body weight (200 mg/kg IP, day 14): 30.8 g
body weight change (% wt/wt) (200 mg/kg IP, day 14): −2.2%
body weight (200 mg/kg IP, day 15): 30.5 g
body weight change (% wt/wt) (200 mg/kg IP, day 15): −3.2%
body weight (400 mg/kg IP, day 1): 31.1 g
body weight change (% wt/wt) (400 mg/kg IP, day 1): 0%
body weight (400 mg/kg IP, day 2): 30.5 g
body weight change (% wt/wt) (400 mg/kg IP, day 2): −1.9%
body weight (400 mg/kg IP, day 3): 29.6 g
body weight change (% wt/wt) (400 mg/kg IP, day 3): −4.8%
body weight (400 mg/kg IP, day 4): 28.6 g
body weight change (% wt/wt) (400 mg/kg IP, day 4): −8.0%
body weight (400 mg/kg IP, day 5): 28.4 g
body weight change (% wt/wt) (400 mg/kg IP, day 5): −8.7%
body weight (400 mg/kg IP, day 6): 28.5 g
body weight change (% wt/wt) (400 mg/kg IP, day 6): −8.4%
body weight (400 mg/kg IP, day 7): 28.4 g
body weight change (% wt/wt) (400 mg/kg IP, day 7): −8.7%
body weight (400 mg/kg IP, day 8): 28.7 g
body weight change (% wt/wt) (400 mg/kg IP, day 8): −7.7%
body weight (400 mg/kg IP, day 9): 29 g
body weight change (% wt/wt) (400 mg/kg IP, day 9): −6.8%
body weight (400 mg/kg IP, day 10): 29.3 g
body weight change (% wt/wt) (400 mg/kg IP, day 10): −5.8%
body weight (400 mg/kg IP, day 11): 29 g
body weight change (% wt/wt) (400 mg/kg IP, day 11): −6.8%
body weight (400 mg/kg IP, day 12): 29.4 g
body weight change (% wt/wt) (400 mg/kg IP, day 12): −5.5%
body weight (400 mg/kg IP, day 13): 29.8 g
body weight change (% wt/wt) (400 mg/kg IP, day 13): −4.2%
body weight (400 mg/kg IP, day 14): 29.8 g
body weight change (% wt/wt) (400 mg/kg IP, day 14): 4.2%
body weight (400 mg/kg IP, day 15): 29.2 g
body weight change (% wt/wt) (400 mg/kg IP, day 15): −6.1%
toxicity (male and female mice, 100-400 mg/kg IP in 20% hydroxypropylcyclodextrane, 10 ml/kg): not toxic

Reference: patent US12084459B2, “2-(4-{1-[6-(4-isopropyl-phenyl)-imidazo[2,1-b][1,3,4]thiadiazol-2-yl]-piperidin-4-ylmethyl}-piperazin-1-yl)-ethanol and use thereof” (Urifer Ltd., priority 2020, dated 2024)
